Where “and” joins values, the source holds several entries; their conditions need not be identical. Identical values can stand only once. Like-named read-outs stand apart in the source and are kept apart here.
Key:
[1] = Online UPLC-PDA-MS-ABTS·+ scavenging (postcolumn derivatisation); conditions: within DOF extract
Method: Online identification of antioxidant components of DOF extract was performed using a UPLC system (Milford, MA, USA) consisting of a Waters photodiode array detector and a Waters postcolumn derivatisation system supplying fresh ABTS solution (UPLC-PDA-QDa-ABTS). […] The detection wavelengths were set at 280 and 734 nm, and the injection volume of the sample was 10 μl.
To detect radical scavengers, the UPLC system was coupled with a Waters pump, which supplied freshly prepared ABTS·+ solution into a reaction coil (15 m, 0.25 mm ID) with a flow rate of 0.2 ml/min at 37°C. Negative peaks were recorded based on a decrease of absorbance at 729 nm after the reaction of individual compounds with the ABTS·+ radical. For preliminary identification of compounds, a Waters Acquity QDa mass detector in negative ionisation mode was connected in series to PDA with the following parameters: electrospray ion source; cone voltage, 15 V; atomiser, N2; and scanning range, 100–800 m/z.

[2] = target: T1, COX-2 (Homo sapiens, UniProt P35354); experiment: Anti-COX-2 assay (COX-2 Inhibitor Screening Kit); format: biochemical
T1 construct: purchased Beyotime S0168
T1 sequence (P35354 18-604): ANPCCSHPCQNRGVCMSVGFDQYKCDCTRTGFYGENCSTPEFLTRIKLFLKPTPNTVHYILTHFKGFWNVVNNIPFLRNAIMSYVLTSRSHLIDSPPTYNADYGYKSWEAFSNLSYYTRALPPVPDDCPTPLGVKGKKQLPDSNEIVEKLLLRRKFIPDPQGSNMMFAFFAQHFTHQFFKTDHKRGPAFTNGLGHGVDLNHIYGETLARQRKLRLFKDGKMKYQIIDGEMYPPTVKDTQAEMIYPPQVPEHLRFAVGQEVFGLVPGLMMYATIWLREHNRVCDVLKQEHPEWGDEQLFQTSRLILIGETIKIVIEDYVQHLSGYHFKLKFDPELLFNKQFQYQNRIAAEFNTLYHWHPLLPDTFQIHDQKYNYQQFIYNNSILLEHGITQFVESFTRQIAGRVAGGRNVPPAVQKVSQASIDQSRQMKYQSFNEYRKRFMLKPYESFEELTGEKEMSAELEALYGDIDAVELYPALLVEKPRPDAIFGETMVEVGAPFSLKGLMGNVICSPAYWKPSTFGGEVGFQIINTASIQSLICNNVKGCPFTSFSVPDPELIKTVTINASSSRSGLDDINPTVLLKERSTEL

[3] = Fluorescent AGEs formation in a BSA-fructose/glucose system; format: biochemical; conditions: for inhibition of fluorescent AGEs formation (BSA-抗糖化), single replicate: individual replicate; for inhibition of fluorescent AGEs formation (BSA-抗糖化), 平均 (mean): mean of 3 replicates
Summary of the method: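 Fluorescent AGE inhibition was measured in triplicate, correcting sample and control fluorescence for BSA-free blanks. Glycation used BSA incubated with D-fructose and D-glucose, with samples dissolved in DMSO:water (1:4).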

[4] = ABTS·+ decolourisation capacity; format: biochemical; conditions: for ABTS scavenging rate: replicate wells, listed as T9
Summary of the method: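 IC50 values were derived graphically from dose-inhibition curves, with % inhibition calculated versus a buffer-only (0.2 M phosphate, pH 7.4) control. Each sample (200 μl) reacted for 10 min with 100 μl ABTS·+ reagent pre-set to A729 0.8 ± 0.05, then absorbance at 729 nm was measured in triplicate.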

[5] = DPPH· scavenging; format: biochemical; conditions: mean ± SD, n = 3;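 further: colourimetric DPPH radical scavenging in 96-well plates, absorbance read-out, percent inhibition relative to ethanol control absorbance, IC50 derived graphically from dose-inhibition curves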
[6] = FRAP total antioxidant capacity; format: biochemical; conditions: lower part of sheet (compound series);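 further: colourimetric FRAP kit assay read as absorbance in 96-well plates, values as mM FeSO4 via standard curve, EC1 being sample concentration matching 1.0 mmol/L FeSO4, Trolox positive control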
[7] = 15.625 µM, listed as T9, 15.625 µM
[8] = 31.25 µM, listed as T9, 31.25 µM

Compound: O=c1c(OC2OC(CO)C(O)C(O)C2OC2OC(CO)C(O)C(O)C2O)c(-c2ccc(O)c(O)c2)oc2cc(O)cc(O)c12 (centres unmarked) [compound 16, Quercetin-3-O-sophoroside]
- online ABTS radical scavenging (size of negative peaks at 734 nm) [1]: strongest ABTS radical scavengers
- COX-2 inhibition (in words) [2]: great COX-2 inhibition
- inhibition at 3.125 µM ([2]; 3.125 μM, single replicates): 18.7%
- COX-2 inhibition ([2]; 3.125 μM, single replicates, listed as T9, 3.125 µM): 24.64% and 15.29%
- inhibition at 6.25 µM ([2]; 6.25 μM, single replicates): 29.8%
- COX-2 inhibition ([2]; 6.25 μM, single replicates, listed as T9, 6.25 µM): 26.80% and 27.13%
- inhibition at 12.5 µM ([2]; 12.5 μM, single replicates): 61.6%
- COX-2 inhibition ([2]; 12.5 μM, single replicates, listed as T9, 12.5 µM): 66.25% and 69.30%
- inhibition at 25 µM ([2]; 25 μM, single replicates): 73.7%
- COX-2 inhibition ([2]; 25 μM, single replicates, listed as T9, 25 µM): 76.43% and 76.52%
- inhibition at 50 µM ([2]; 50 μM, single replicates): 77.8%
- COX-2 inhibition ([2]; 50 μM, single replicates, listed as T9, 50 µM): 79.58% and 76.60%
- inhibition at 100 µM ([2]; 100 μM, single replicates): 79.3%
- COX-2 inhibition ([2]; 100 μM, single replicates, listed as T9, 100 µM): 79.42% and 83.93%
- inhibition at 200 µM ([2]; 200 μM, single replicates): 80.9%
- COX-2 inhibition ([2]; 200 μM, single replicates, listed as T9, 200 µM): 81.85% and 81.79%
- IC50 ([2]; mean ± SD, n = 3, nd, not detected, read-out: COX-2 IC50): 11 ± 0.7 µM
- IC50 ([2]; supplement sheet COX, read-out: COX-2 IC50, single replicate): 11.7 µM and 10.4 µM and 10.9 µM
- inhibition of fluorescent AGEs formation (BSA-抗糖化), single replicate [3, 7]: -5.89% and 1.09% and -2.67%
- inhibition of fluorescent AGEs formation (BSA-抗糖化), 平均 (mean) [3, 7]: -2.49%
- inhibition of fluorescent AGEs formation (BSA-抗糖化), single replicate [3, 8]: 4.38% and 4.16% and -1.45%
- inhibition of fluorescent AGEs formation (BSA-抗糖化), 平均 (mean) [3, 8]: 2.37%
- inhibition of fluorescent AGEs formation (BSA-抗糖化), single replicate ([3]; 62.5 µM, listed as T9, 62.5 µM): 13.91% and 12.77% and 15.77%
- inhibition of fluorescent AGEs formation (BSA-抗糖化), 平均 (mean) ([3]; 62.5 µM, listed as T9, 62.5 µM): 14.15%
- inhibition of fluorescent AGEs formation (BSA-抗糖化), single replicate ([3]; 125 µM, listed as T9, 125 µM): 29.89% and 32.42% and 28.07%
- inhibition of fluorescent AGEs formation (BSA-抗糖化), 平均 (mean) ([3]; 125 µM, listed as T9, 125 µM): 30.13%
- inhibition of fluorescent AGEs formation (BSA-抗糖化), single replicate ([3]; 250 µM, listed as T9, 250 µM): 44.67% and 46.80% and 48.36%
- inhibition of fluorescent AGEs formation (BSA-抗糖化), 平均 (mean) ([3]; 250 µM, listed as T9, 250 µM): 46.61%
- inhibition of fluorescent AGEs formation (BSA-抗糖化), single replicate ([3]; 500 µM, listed as T9, 500 µM): 63.53% and 64.37% and 63.12%
- inhibition of fluorescent AGEs formation (BSA-抗糖化), 平均 (mean) ([3]; 500 µM, listed as T9, 500 µM): 63.67%
- inhibition of fluorescent AGEs formation (BSA-抗糖化), single replicate ([3]; 1000 µM, listed as T9, 1000 µM): 79.44% and 79.91% and 79.18%
- inhibition of fluorescent AGEs formation (BSA-抗糖化), 平均 (mean) ([3]; 1000 µM, listed as T9, 1000 µM): 79.51%
- inhibition of fluorescent AGEs formation (BSA-抗糖化), single replicate ([3]; 2000 µM, listed as T9, 2000 µM): 88.85% and 89.28% and 89.06%
- inhibition of fluorescent AGEs formation (BSA-抗糖化), 平均 (mean) ([3]; 2000 µM, listed as T9, 2000 µM): 89.06%
- inhibition of fluorescent AGEs formation (BSA-抗糖化), single replicate ([3]; 4000 µM (series head 'T9 4000µM', 2-fold dilutions), listed as T9): 94.75% and 94.42% and 94.91%
- inhibition of fluorescent AGEs formation (BSA-抗糖化), 平均 (mean) ([3]; 4000 µM, listed as T9, 4000 µM): 94.69%
- IC50 ([3]; mean ± SD, n = 3, read-out: BSA-glycation IC50): 296 ± 8.5 µM
- ABTS scavenging rate ([4]; 0.1mM (second) series, concentration 1.5625 (unit not given)): 15.90% and 14.14% and 8.19%
- ABTS scavenging rate ([4]; 0.1mM (second) series, concentration 3.125 (unit not given)): 24.15% and 23.67% and 20.29%
- ABTS scavenging rate ([4]; 0.1mM (second) series, concentration 6.25 (unit not given)): 44.10% and 44.05% and 40.43%
- ABTS scavenging rate ([4]; 0.1mM (second) series, concentration 12.5 (unit not given)): 74.66% and 75.28% and 72.52%
- ABTS scavenging rate ([4]; 0.1mM (second) series, concentration 25 (unit not given)): 99.29% and 99.51% and 99.54%
- ABTS scavenging rate ([4]; 0.1mM (second) series, concentration 50 (unit not given)): 99.16% and 99.11% and 99.25%
- ABTS scavenging rate ([4]; 0.1mM (second) series, concentration 100 (unit not given)): 98.65% and 98.51% (2×)
- ABTS scavenging rate ([4]; 0.5mM series, concentration 7.8125 (unit not given)): 63.17% and 62.77% and 62.93%
- ABTS scavenging rate ([4]; 0.5mM series, concentration 15.625 (unit not given)): 91.66% and 90.68% and 90.61%
- ABTS scavenging rate ([4]; 0.5mM series, concentration 31.25 (unit not given)): 99.28% and 99.41% and 99.37%
- ABTS scavenging rate ([4]; 0.5mM series, concentration 62.5 (unit not given)): 98.95% and 98.76% and 98.72%
- ABTS scavenging rate ([4]; 0.5mM series, concentration 125 (unit not given)): 98.61% and 98.31% and 98.43%
- ABTS scavenging rate ([4]; 0.5mM series, concentration 500 (unit not given)): 98.97% and 98.88% and 98.79%
- IC50 ([4]; mean ± SD, n = 3): 6.63 ± 0.41 µM
- IC50 [5]: 172 ± 76 µM
- FRAP EC1 [6]: 949.6 ± 41.9 µM

Source: article PMC10064984, “Anti-cyclooxygenase, anti-glycation, and anti-skin aging effect of Dendrobium officinale flowers’ aqueous extract and its phytochemical validation in aging” (Frontiers in Immunology, 2023)
